# Test results as given in PMC6510822, “Identification of anticancer OATP2B1 substrates by an in vitro triple-fluorescence-based cytotoxicity screen” (Archives of Toxicology, 2019).
# Read-outs that look alike come from different tables or passages of the source. Marks after values point to notes of the source that are not given here.
# Assays:
# A431G2 cells = test: PrestoBlue-based cytotoxicity assay, A431G2; type: cell-based, human; conditions: PrestoBlue viability assay
# Protocol: (§1) All experiments were performed using a robotic pipetting workstation (Hamilton Robotics STAR Let). Cells were seeded at a final cell density of 1875 cells per well in 384-well plates in the triple co-culture (625 cells from each lines) and at 2500 cells per well in the A431 control and A431-2B1 co-culture (1250 cells from both) systems. Co-cultured cells were incubated for 24 h at 37 °C and 5% CO2 under humidified atmosphere prior to the addition of drugs. […] Data were exported to a custom-made program for determining growth inhibition curves for each cell line. In confirmatory screens, compounds were tested with the same method in a nine-point dose response format. For validation, compounds were confirmed in cytotoxicity assays using the PrestoBlue cell viability reagent (ThermoFisher), according to the manufacturer’s instructions.
# [1] = tested on: A431-B1 cells (ABCB1/P-glycoprotein expressing); test: Fluorescence-based cytotoxicity assay, ABCB1-expressing A431-B1 mCh; conditions: for RR (A431B1): resistance ratio = IC50 A431B1 / IC50 parental A431, triple co-culture screen; for IC50: fluorescent protein based assay
# ABCB1 (P-glycoprotein) = test: as above; conditions: human
# A431B1 cells = test: PrestoBlue-based cytotoxicity assay, A431B1; type: cell-based, human; conditions: PrestoBlue viability assay
# Protocol: as §1
# OATP2B1 [2] = target: T1, OATP2B1 (Homo sapiens, UniProt O94956); test: Inhibition of OATP2B1-mediated Cascade Blue uptake (microplate-based uptake assay, A431-2B1 cells)
# T1 sequence (O94956 1-709): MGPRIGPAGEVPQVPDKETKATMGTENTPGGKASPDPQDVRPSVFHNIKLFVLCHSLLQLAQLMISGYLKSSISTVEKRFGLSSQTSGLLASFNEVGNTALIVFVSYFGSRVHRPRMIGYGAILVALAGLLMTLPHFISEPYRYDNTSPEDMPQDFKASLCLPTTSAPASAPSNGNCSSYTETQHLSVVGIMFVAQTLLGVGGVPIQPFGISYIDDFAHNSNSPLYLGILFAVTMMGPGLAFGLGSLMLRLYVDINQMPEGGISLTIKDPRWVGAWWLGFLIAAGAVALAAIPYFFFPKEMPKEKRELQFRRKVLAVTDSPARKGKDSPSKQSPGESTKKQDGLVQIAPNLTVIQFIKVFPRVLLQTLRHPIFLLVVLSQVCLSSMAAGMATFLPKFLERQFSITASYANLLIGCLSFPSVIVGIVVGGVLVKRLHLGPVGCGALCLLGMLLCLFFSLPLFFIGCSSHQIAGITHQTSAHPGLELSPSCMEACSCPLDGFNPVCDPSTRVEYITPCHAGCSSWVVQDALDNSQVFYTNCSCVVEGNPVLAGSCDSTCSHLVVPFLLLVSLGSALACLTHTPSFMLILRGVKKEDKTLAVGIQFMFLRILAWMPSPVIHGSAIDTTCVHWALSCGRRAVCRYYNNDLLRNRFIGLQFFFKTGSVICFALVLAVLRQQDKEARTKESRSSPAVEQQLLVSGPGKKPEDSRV
# A431 cells [3] = test: Fluorescence-based cytotoxicity assay, parental A431 eGFP
# [4] = tested on: Mes-Sa-B1 cells (Pgp overexpressing); test: Fluorescence-based cytotoxicity assay, Mes-Sa-B1 mOr; conditions: for RR (Mes-Sa-B1): resistance ratio = IC50 Mes-Sa-B1 / IC50 parental Mes-Sa, triple co-culture screen; for IC50: fluorescent protein based assay
# ABCG2 = test: Fluorescence-based cytotoxicity assay, ABCG2-expressing A431-G2 mOr; conditions: human
# Mes-Sa/Dx5 cells [5] = test: Fluorescence-based cytotoxicity assay, Mes-Sa/Dx5 eGFP; conditions: for RR (Dx5): resistance ratio = IC50 Mes-Sa/Dx5 / IC50 parental Mes-Sa, triple co-culture screen; for IC50: fluorescent protein based assay
# OATP2B1 [6] = test: Fluorescence-based cytotoxicity assay, OATP2B1-expressing A431-2B1 mCh; conditions: human
# [7] = tested on: A431-2B1 cells (OATP2B1 expressing); test: as above
# A431 cells [8] = test: PrestoBlue-based cytotoxicity assay, A431; type: cell-based, human; conditions: PrestoBlue viability assay
# Protocol: as §1
# Mes-Sa/Dx5 cells [9] = tested on: Mes-Sa/Dx5 cells
# OATP2B1 [10] = test: in vitro; conditions: human
# Mes-Sa cells [11] = test: Fluorescence-based cytotoxicity assay, parental Mes-Sa mCh; conditions: fluorescent protein based assay
# [12] = tested on: A431-G2 cells (ABCG2 expressing); test: Fluorescence-based cytotoxicity assay, ABCG2-expressing A431-G2 mOr; conditions: triple co-culture, result in words
# Mes-Sa-B1 cells = test: PrestoBlue-based cytotoxicity assay, Mes-Sa-B1; type: cell-based, human; conditions: PrestoBlue viability assay
# Protocol: as §1
# Mes-Sa cells [13] = test: PrestoBlue-based cytotoxicity assay, Mes-Sa; type: cell-based, human; conditions: PrestoBlue viability assay
# Protocol: as §1
# Mes-Sa/Dx5 cells [14] = test: PrestoBlue-based cytotoxicity assay, Mes-Sa/DX5; type: cell-based, human; conditions: PrestoBlue viability assay
# Protocol: as §1
# [15] = Homo sapiens, A-431, read-out: IC50 (µM) A431 eGFP, co-culture
# [16] = Homo sapiens, A-431, read-out: IC50 (µM) A431 eGFP, monoculture
# [17] = A431-2B1 mCherry cells (OATP2B1-expressing), monoculture
# [18] = IC50 A431 eGFP / IC50 A4312B1 mCh, co-culture
# [19] = IC50 A431 eGFP / IC50 A4312B1 mCh
# [20] = primary screen, co-culture, Fig. 4 inset
Compound,IC50 (OATP2B1 [2]) [µM],RR (A431B1) [1],IC50 (A431 cells [3]; [15]) [µM],IC50 (A431 cells [3]; [16]) [µM],RR (Mes-Sa-B1) [4],RR (Dx5) (Mes-Sa/Dx5 cells [5]),IC50 at […] (OATP2B1 [6]) [µM],IC50 at […] (OATP2B1 [6]; [17]) [µM],"SR, co-culture [7, 18]","SR, monoculture [7, 19]","SR (A431-2B1 vs parental A431), screening of DTP Oncology Set IV [7, 20]",further results
"CO[C@@]12[C@H](COC(N)=O)C3=C(C(=O)C(C)=C(N)C3=O)N1C[C@@H]1N[C@@H]12 [NSC-26980, Mitomycin]",–,–,–,–,–,–,–,–,–,–,–,SR (Mes-Sa/DX5) (Mes-Sa/Dx5 cells [9]): 4.407; SR (Mes-Sa-B1) [4]: 0.56
"S=P(N1CC1)(N1CC1)N1CC1 [NSC-6396, Thioplex]",574 ± 283,–,57.6,–,–,–,–,–,–,–,–,"IC50 (OATP2B1 [10]): 18.7 µM; SR (Mes-Sa/DX5) (Mes-Sa/Dx5 cells [5]): 12.56; SR (A431-2B1 vs parental A431), screening of DTP Oncology Set IV [7]: 3.48; SR, co-culture [7]: 3.08^*"
Oc1c(CN2CCCCC2)ccc2cccnc12 [NSC57969],–,–,–,–,–,–,–,–,–,–,–,"IC50 (A431G2 cells): 5.76 µM; IC50 ([1]; read-out: IC50 A431B1, monoculture, monoculture): 0.774 µM; IC50 ([1]; read-out: IC50 A431B1, triple co-culture, triple co-culture): 2.78 µM; IC50 (A431B1 cells): 0.974 µM; IC50 (A431 cells [3]; read-out: IC50 A431, monoculture, fluorescent protein based assay, monoculture): 5.13 µM; IC50 (A431 cells [3]; read-out: IC50 A431, triple co-culture, fluorescent protein based assay, triple co-culture): 7.09 µM; IC50 (Mes-Sa cells [11]; read-out: IC50 Mes-Sa, monoculture, monoculture): 5.08 µM; IC50 (Mes-Sa cells [11]; read-out: IC50 Mes-Sa, triple co-culture, triple co-culture): 3.21 µM; IC50 ([4]; read-out: IC50 Mes-Sa-B1, monoculture, monoculture): 2.81 µM; IC50 ([4]; read-out: IC50 Mes-Sa-B1, triple co-culture, triple co-culture): 1.8 µM; Effect of ABCG2 expression on toxicity (A431-G2 vs parental A431) [12]: did not sensitize; IC50 (Mes-Sa-B1 cells): 1.48 µM; IC50 (Mes-Sa cells [13]): 4.89 µM; IC50 (Mes-Sa/Dx5 cells [5]; read-out: IC50 Mes-Sa/DX5, monoculture, monoculture): 0.951 µM; IC50 (Mes-Sa/Dx5 cells [5]; read-out: IC50 Mes-Sa/DX5, triple co-culture, triple co-culture): 0.177 µM; IC50 (Mes-Sa/Dx5 cells [14]): 0.815 µM; IC50 (A431 cells [8]): 4.93 µM"
"CCCCCOC(=O)Nc1nc(=O)n([C@@H]2O[C@H](C)[C@@H](O)[C@H]2O)cc1F [NSC-712807, Capecitabine]",124 ± 6.42,–,205,391,–,–,44.5,129,4.62^**,3.04^**,3.41,–

# More lines, main results first:
IC50 (OATP2B1 [2]) [µM],Compound,RR (A431B1) [1],IC50 (A431 cells [3]; [15]) [µM],IC50 (A431 cells [3]; [16]) [µM],RR (Mes-Sa-B1) [4],RR (Dx5) (Mes-Sa/Dx5 cells [5]),IC50 at […] (OATP2B1 [6]) [µM],IC50 at […] (OATP2B1 [6]; [17]) [µM],"SR, co-culture [7, 18]","SR, monoculture [7, 19]","SR (A431-2B1 vs parental A431), screening of DTP Oncology Set IV [7, 20]",further results
1.88 ± 0.32,"COc1cc([C@@H]2c3cc4c(cc3[C@@H](O[C@@H]3O[C@@H]5CO[C@@H](C)O[C@H]5[C@H](O)[C@H]3O)[C@H]3COC(=O)[C@H]23)OCO4)cc(OC)c1O [NSC-141540, Etoposide]",> 4.14,7.45,6.42,16.97,> 61.73,0.82,1.99,9.06^**,3.2^*,3.017,"IC50 (A431G2 cells; Homo sapiens): 3.43 µM; IC50 at […] (ABCB1 (P-glycoprotein)): 13.8 µM; IC50 at […] (ABCB1 (P-glycoprotein); A431-B1 mCherry cells (ABCB1-expressing), monoculture): 46.3 µM; IC50 (A431B1 cells; Homo sapiens): 5.49 µM; IC50 (A431 cells [3]; Homo sapiens, A-431, read-out: IC50 A431, monoculture): 6.1 µM; IC50 (A431 cells [3]; Homo sapiens, A-431, read-out: IC50 A431, triple co-culture): 1.69 µM; IC50 at […] (ABCG2): 4.05 µM; IC50 at […] (ABCG2; A431-G2 mOrange cells (ABCG2-expressing), monoculture): 12 µM; IC50 (A431 cells [8]; Homo sapiens, A-431): 1.19 µM"
11.3 ± 0.38,"CC(=O)O[C@@]12CO[C@@H]1C[C@H](O)[C@@]1(C)C(=O)[C@H](O)C3=C(C)[C@@H](OC(=O)[C@H](O)[C@@H](NC(=O)OC(C)(C)C)c4ccccc4)C[C@@](O)([C@@H](OC(=O)c4ccccc4)[C@H]21)C3(C)C [NSC-628503, Docetaxel]",26.38,0.08,0.00097,275.00,295.00,0.002,0.00022,–,4.35^*,4.00,–
4.59 ± 0.4,"COc1cc([C@@H]2c3cc4c(cc3[C@@H](O[C@@H]3O[C@@H]5CO[C@@H](c6cccs6)O[C@H]5[C@H](O)[C@H]3O)[C@H]3COC(=O)[C@H]23)OCO4)cc(OC)c1O [NSC-122819, Teniposide]",5.43,0.45,0.83,41.88,75.25,0.07,0.14,6.02^*,6.1^**,4.78,–
